ChEMBL document CHEMBL3301464, “MMV Malaria Box anti-babesial screening”

Columns and labels:
[1] = (§1) MMV: Anti-babesial activity assay. Parasite pRBCs at 1% parasitemia were cultivated in 100 ul with 96-well plates at 2.5% and 5% hematocrits. The parasites were cultivated in triplicate for 4 days without replacement of the medium for each concentration of the compound.; type: functional, Babesia equi
[2] = as §1; type: functional, Babesia bovis
[3] = as §1; type: functional, Babesia caballi
[4] = as §1; type: functional, Babesia bigemina

Row | SMILES | IC50 [1] [µM] | IC50 [2] [µM] | IC50 [3] [µM] | IC50 [4] [µM]
1 | O=C(Nc1ccccc1O)c1ccc(Oc2cccc(C(=O)Nc3ccccc3O)c2)cc1 | 4.19 | 6.45 | 19.4 | 2.86
2 | N=c1n(CCN2CCCCC2)c2ccccc2n1CC(O)c1cccc(Br)c1 (centres undefined) | 1.58 | 3.81 | 4.93 | 1
3 | COc1cccc(O)c1CN1CCC2(CCCN(Cc3ccc(F)cc3)C2)C1 (centres undefined) | 4.6 | 2.45 | 3.09 | 10
4 | COc1cccc(Nc2nc(NCCO)c3ccccc3n2)c1 | 4.09 | 6.99 | 1.3 | 1
5 | O=C(NCc1ccco1)C1CCN(S(=O)(=O)c2ccc(Cl)cc2)CC1 | 7.59 | > 25 | 25 | 13
6 | COc1ccc(C(=O)Nc2ccc3nc(N4CCCCC4)cc(C)c3c2)cc1OC | 6.99 | 14.3 | 0.51 | 0.46
7 | COc1ccc(N2CCN(C(CNC(=O)C3CCCCC3)c3ccc4c(c3)OCO4)CC2)cc1 (centres undefined) | 13 | 24.9 | 7.67 | 7.67
8 | CCC(C)NCC(O)(c1ccc(Cl)cc1)c1ccc(Cl)cc1 (centres undefined) | 7.67 | 25 | 2.96 | 1.9
9 | Cc1[nH]c(-c2ccc(F)cc2)cc1C(=O)NC1CCN(Cc2ccccc2)CC1 | 0.58 | 0.303 | 8.21 | 4.29
10 | COc1ccc(CCN2CCC(CN(C)Cc3cnn(-c4ccccc4)c3)CC2)cc1 | 0.62 | 0.87 | 2.45 | 4.29
11 | O=C(NC(c1ccccc1)c1ccc2cccnc2c1O)c1ccccc1 (centres undefined) | 0.47 | 1 | 0.55 | 0.93
12 | COCCNC(=O)c1ccc(OC2CCN(Cc3ccc(F)c(F)c3)CC2)c(Cl)c1 | 17.2 | 0.27 | 1 | 0.98
13 | O=C(NC1CCCC1)c1ccc(N2CCC(NCc3cccc(C(F)(F)F)c3)CC2)cc1 | 10 | 14 | 13.4 | 25
14 | CCOc1cc(Br)c(C(C)NC(=O)c2cccc(OC)c2)cc1OCC (centres undefined) | 12.4 | 10 | 13.3 | 25
15 | CC(C)=CCN1CCC(C(=O)Nc2ccc(-c3nc4ccccc4[nH]3)cc2)CC1 | 0.051 | 5.5 | 17 | 1.04
16 | CCN(CC)CCn1c(=N)n(CC(O)c2ccc(Cl)c(Cl)c2)c2ccccc21 (centres undefined) | 3.91 | 10.1 | 5.62 | 17.2
17 | CCOc1cc(Cl)c(C(C)NC(=O)c2cccc(OC)c2)cc1OCC (centres undefined) | 2.45 | 25 | 18.7 | 7.3
18 | O=C(CCc1ccco1)NC1CCN(CC2(c3ccc(Cl)cc3)CCC2)CC1 | 3.39 | 5.06 | > 25 | 1.87
19 | FC(F)(F)c1cccc(Nc2nc(-c3ccccc3)nc3ncccc23)c1 | 16 | 6.8 | 12 | 4.48
20 | CCN1CCN(c2cc(C)c3cc(NC(=O)c4ccc(OC)c(OC)c4)ccc3n2)CC1 | 0.33 | 6.69 | 5.93 | 7.92
21 | Cc1ccc(Cl)cc1N1CCN(CCCNC(=O)C2CCN(c3nc4ccccc4[nH]3)CC2)CC1 | 4.77 | 3.03 | 1 | 2.4

Row | SMILES | IC50 [1] [µM] | IC50 [2] [µM] | IC50 [3] [µM] | IC50 [4] [µM]
22 | COCCN(C(=O)Cc1cccs1)C(C(=O)NCc1ccc(OC)cc1)c1ccc(C(C)C)cc1 (centres undefined) | 5.79 | 25 | 17.2 | 13.2
23 | Cc1ccc(CSCc2ccc(C(=O)NC3CC3)o2)cc1 | 4.48 | 8.31 | 12.9 | 15.2
24 | Oc1ccc(Cl)cc1CNc1nc2ccccc2[nH]1 | 4.77 | 5.38 | 8.03 | 5.06
25 | CCOc1cc(Cl)c(C(C)NC(=O)c2ccccc2)cc1OCC (centres undefined) | 10 | > 25 | 12.4 | 4.19
26 | O=C(c1ccccc1F)N(Cc1ccc(Cl)cc1)c1ccccn1 | 18.2 | 16.5 | 6.06 | 4.19
27 | COc1cccc(C(=O)Nc2ccc(-c3nc4ccccc4[nH]3)cc2)c1 | 7.38 | 1 | 4.89 | 4.77
28 | COCCn1c(C)nc2ccccc2c1=O | 12.9 | 14.3 | 13.9 | 14.7
29 | O=C(Nc1ccc(CN2CCOCC2)cc1)c1ccc(-c2ccc(Br)cc2)o1 | 6.8 | 7.67 | 5.64 | 11.5
30 | CC(=O)NCCc1nc2ccccc2n1Cc1ccc(C(C)C)cc1 | 1 | 7.96 | 10 | 8.2
31 | CN(C)c1ccc(-c2nc3cc(N)ccc3[nH]2)cc1 | 3.61 | 0.083 | 7.59 | 1.04
32 | O=C(CSc1ccc2nnc(-c3cccc(F)c3)n2n1)Nc1ccc2c(c1)OCO2 | 12.9 | 11.9 | 18.2 | 20.2
33 | Cc1c(C)n(Cc2ccc(F)cc2)c2ccc(C(=O)NCc3ccco3)cc12 | 15.8 | 24.7 | 10 | 0.288
34 | CC(C)(C)C(=O)Nc1ccc(C(=O)Nc2cccc(-c3nc4ccccc4[nH]3)c2)cc1 | 5.19 | 0.32 | 2.19 | 0.08
35 | COc1cccc(-c2nn(C)c3sc(C(=O)NCCN4CCN(c5ccccc5F)CC4)cc23)c1 | 5.93 | 2.06 | 6.8 | 10
36 | Cc1ccc(CN2CCC(C(=O)Nc3ccc(-c4cc5ccccc5[nH]4)cc3)CC2)o1 | 0.33 | 5.5 | 4.37 | 3.61
37 | O=C(Nc1ccc(N2CCCCC2)c(Cl)c1)c1ccc(Br)o1 | 18.7 | 11.9 | 13.9 | 17.7
38 | Cc1cc(C)c2nc(N3CCC(C(=O)NCCCN4CCC(N5CCCCC5)CC4)CC3)sc2c1 | 0.64 | 2.74 | 4.77 | 3.91
39 | CCn1c(SCC(=O)Nc2cc(C(F)(F)F)ccc2Cl)nc2ccccc2c1=O | 15.8 | 25 | 14.8 | 3.32
40 | O=C(Nc1ccc(Cl)cc1C(=O)Nc1ccncc1)c1ccc(Cl)cc1Cl | 3.61 | 10 | 5.64 | 19.7
41 | O=C(Nc1cccc(C(F)(F)F)c1)c1cc(Cl)ccc1O | 5.1 | 0.82 | 5.21 | 3.71
42 | CCOc1cccc2sc(N(Cc3cccnc3)C(=O)C3CCCCC3)nc12 | 4.77 | 25 | 0.076 | 21.6

Row | SMILES | IC50 [1] [µM] | IC50 [2] [µM] | IC50 [3] [µM] | IC50 [4] [µM]
43 | COc1ccc(C2N(C)c3ccccc3N2C)cc1 | 7.89 | 4.77 | 4.6 | 2.16
44 | CCN(CC)c1cc(C)c2cc(NC(=O)c3cccc(OC)c3)ccc2n1 | 0.46 | 10 | 9.33 | 8.99
45 | CC(C)(C)CC(C)(C)NCC(O)COc1ccc2c(c1)CCC2 (centres undefined) | 2.45 | 10 | 6.81 | 0.6
46 | CCOc1ccc(/C=C/c2nc(=O)c3ccccc3o2)cc1 | 12.5 | 1 | 19.4 | 3.03
47 | O=C(Nc1ccccc1O)c1ccc(-c2ccc(Cl)cc2Cl)o1 | 12.5 | 4.65 | 6.51 | 19
48 | CC(C)OCc1cc(CN2CCN(c3cccc(Cl)c3)CC2)c(O)c2ncccc12 | 1 | 0.59 | 0.073 | 0.92
49 | O=C(Nc1nc(-c2ccccn2)cs1)c1ccccc1Br | 5.5 | 4.6 | 1 | 1
50 | O=C(Nc1ccc(F)c(Cl)c1)Nc1ccc(Cl)c(Cl)c1 | 3.39 | 3.53 | 3.81 | 3.39
51 | CC(O)(c1ccc(Cl)cc1)C(CN1CCCCC1)c1ccccc1 (centres undefined) | 7.09 | 13.3 | 0.08 | 0.87
52 | CCCCc1ccc(NS(=O)(=O)c2cc3c4c(c2)CCN4C(=O)CC3)cc1 | 0.57 | 25 | 0.07 | 12.5
53 | CCOc1ccc(-c2nc(NC(=O)c3cccc(S(C)(=O)=O)c3)sc2C)cc1 | 17.7 | 4.48 | 11.9 | 15
54 | COc1ccccc1N1CCN(C(CNS(=O)(=O)c2ccc(Cl)cc2)c2cccnc2)CC1 (centres undefined) | 17.2 | 0.669 | 13.5 | 2.16
55 | CCOc1c(Cl)cc(CNC(C)C(O)c2ccccc2)cc1OC (centres undefined) | 6.69 | 1.89 | 12 | 7.31
56 | COc1ccc(C2Sc3ccccc3N=C3C2=C(O)c2ccccc23)cc1 (centres undefined) | 15.8 | 13.9 | 7.09 | 4.09
57 | CCCN(CCC)CCCNC(=O)c1cc2c(-c3ccc(OC)c(OC)c3)nn(C)c2s1 | 19.4 | 11 | 5.5 | 3.32
58 | CN1c2ccccc2N(C)C1c1ccc2c(c1)OCO2 | 10.1 | 4.93 | 0.36 | 0.1
59 | O=C(NCC1Cc2cccc(-c3ccncc3)c2O1)c1csc2c1CCCC2 (centres undefined) | 3.7 | 7.18 | 15.3 | 1
60 | CC1CCCCN1CCCNC(=O)c1ccc2c(c1)sc1nc(-c3ccc(F)cc3)cn12 (centres undefined) | 0.1 | 0.19 | 8.54 | 3.9
61 | C=C(C)CCC(C)N1CCC(N2CCC(C(=O)NCCc3ccccc3)CC2)CC1 (centres undefined) | 4.89 | 4.37 | 12.9 | 2.4
